Results taken from EP4592286A1, “MACROCYCLIC NITROGEN-CONTAINING CROWN ETHER COMPOUND AND USE THEREOF AS PROTEIN KINASE INHIBITOR” (Artivila Biopharma, priority 2022, dated 2024).

Key:
JAK2 = JAK2 (Homo sapiens, UniProt O60674); assay: experiment of inhibiting kinase activity (Caliper mobility shift assay), JAK2; assay type: biochemical; settings: for inhibition at 0.01 µM: at 10 nM; for inhibition at 0.01 µM / inhibition at 0.1 µM: read-out: inhibition rate JAK2; for inhibition at 0.1 µM: at 100 nM; for IC50: kinase activity assay, Table 3
Chain of JAK2 (O60674 whole entry): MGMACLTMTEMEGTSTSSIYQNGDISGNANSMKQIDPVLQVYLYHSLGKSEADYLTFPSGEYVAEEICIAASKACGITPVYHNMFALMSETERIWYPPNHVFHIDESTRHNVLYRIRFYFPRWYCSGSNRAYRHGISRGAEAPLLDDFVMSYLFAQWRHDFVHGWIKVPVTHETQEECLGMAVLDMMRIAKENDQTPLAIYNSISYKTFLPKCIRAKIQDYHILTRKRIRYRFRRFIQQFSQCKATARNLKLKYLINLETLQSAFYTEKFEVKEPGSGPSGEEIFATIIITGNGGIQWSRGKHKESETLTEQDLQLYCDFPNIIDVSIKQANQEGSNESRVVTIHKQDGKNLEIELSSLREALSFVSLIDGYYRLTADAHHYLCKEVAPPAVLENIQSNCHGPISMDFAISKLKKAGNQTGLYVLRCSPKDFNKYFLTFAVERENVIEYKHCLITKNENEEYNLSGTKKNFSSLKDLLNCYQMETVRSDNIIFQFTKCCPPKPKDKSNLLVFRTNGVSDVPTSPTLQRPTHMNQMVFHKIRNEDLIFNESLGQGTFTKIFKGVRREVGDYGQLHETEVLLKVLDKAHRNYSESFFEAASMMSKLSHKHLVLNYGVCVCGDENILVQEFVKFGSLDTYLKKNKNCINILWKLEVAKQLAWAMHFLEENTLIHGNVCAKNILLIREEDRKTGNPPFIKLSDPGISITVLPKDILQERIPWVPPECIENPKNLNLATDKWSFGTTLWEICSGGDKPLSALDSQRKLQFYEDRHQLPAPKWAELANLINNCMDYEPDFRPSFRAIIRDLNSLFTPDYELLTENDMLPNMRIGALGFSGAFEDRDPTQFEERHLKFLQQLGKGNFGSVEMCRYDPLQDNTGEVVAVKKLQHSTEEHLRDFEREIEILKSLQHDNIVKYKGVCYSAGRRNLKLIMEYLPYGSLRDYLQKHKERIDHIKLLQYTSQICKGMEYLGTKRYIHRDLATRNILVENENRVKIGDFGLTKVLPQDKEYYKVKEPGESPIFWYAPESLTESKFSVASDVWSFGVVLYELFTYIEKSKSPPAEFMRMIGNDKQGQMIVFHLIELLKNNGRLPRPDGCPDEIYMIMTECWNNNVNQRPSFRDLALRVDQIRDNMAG
Procedure, shortened: (§1)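 Inhibition is measured as reduced conversion of substrate by the kinase, separated by microfluidic mobility shift after a room-temperature reaction started with ATP/substrate following a 10-min compound preincubation. Test doses are 10 nM, 100 nM, or a 10-point 3-fold series from 10 µM.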

LRRK2 = LRRK2 (Homo sapiens, UniProt Q5S007); assay: experiment of inhibiting kinase activity, LRRK2; assay type: biochemical; settings: for inhibition at 0.01 µM: at 10 nM; for inhibition at 0.01 µM / inhibition at 0.1 µM: read-out: inhibition rate LRRK2; for inhibition at 0.1 µM: at 100 nM; for IC50: kinase activity assay, Table 3
Chain of LRRK2 (Q5S007 whole entry): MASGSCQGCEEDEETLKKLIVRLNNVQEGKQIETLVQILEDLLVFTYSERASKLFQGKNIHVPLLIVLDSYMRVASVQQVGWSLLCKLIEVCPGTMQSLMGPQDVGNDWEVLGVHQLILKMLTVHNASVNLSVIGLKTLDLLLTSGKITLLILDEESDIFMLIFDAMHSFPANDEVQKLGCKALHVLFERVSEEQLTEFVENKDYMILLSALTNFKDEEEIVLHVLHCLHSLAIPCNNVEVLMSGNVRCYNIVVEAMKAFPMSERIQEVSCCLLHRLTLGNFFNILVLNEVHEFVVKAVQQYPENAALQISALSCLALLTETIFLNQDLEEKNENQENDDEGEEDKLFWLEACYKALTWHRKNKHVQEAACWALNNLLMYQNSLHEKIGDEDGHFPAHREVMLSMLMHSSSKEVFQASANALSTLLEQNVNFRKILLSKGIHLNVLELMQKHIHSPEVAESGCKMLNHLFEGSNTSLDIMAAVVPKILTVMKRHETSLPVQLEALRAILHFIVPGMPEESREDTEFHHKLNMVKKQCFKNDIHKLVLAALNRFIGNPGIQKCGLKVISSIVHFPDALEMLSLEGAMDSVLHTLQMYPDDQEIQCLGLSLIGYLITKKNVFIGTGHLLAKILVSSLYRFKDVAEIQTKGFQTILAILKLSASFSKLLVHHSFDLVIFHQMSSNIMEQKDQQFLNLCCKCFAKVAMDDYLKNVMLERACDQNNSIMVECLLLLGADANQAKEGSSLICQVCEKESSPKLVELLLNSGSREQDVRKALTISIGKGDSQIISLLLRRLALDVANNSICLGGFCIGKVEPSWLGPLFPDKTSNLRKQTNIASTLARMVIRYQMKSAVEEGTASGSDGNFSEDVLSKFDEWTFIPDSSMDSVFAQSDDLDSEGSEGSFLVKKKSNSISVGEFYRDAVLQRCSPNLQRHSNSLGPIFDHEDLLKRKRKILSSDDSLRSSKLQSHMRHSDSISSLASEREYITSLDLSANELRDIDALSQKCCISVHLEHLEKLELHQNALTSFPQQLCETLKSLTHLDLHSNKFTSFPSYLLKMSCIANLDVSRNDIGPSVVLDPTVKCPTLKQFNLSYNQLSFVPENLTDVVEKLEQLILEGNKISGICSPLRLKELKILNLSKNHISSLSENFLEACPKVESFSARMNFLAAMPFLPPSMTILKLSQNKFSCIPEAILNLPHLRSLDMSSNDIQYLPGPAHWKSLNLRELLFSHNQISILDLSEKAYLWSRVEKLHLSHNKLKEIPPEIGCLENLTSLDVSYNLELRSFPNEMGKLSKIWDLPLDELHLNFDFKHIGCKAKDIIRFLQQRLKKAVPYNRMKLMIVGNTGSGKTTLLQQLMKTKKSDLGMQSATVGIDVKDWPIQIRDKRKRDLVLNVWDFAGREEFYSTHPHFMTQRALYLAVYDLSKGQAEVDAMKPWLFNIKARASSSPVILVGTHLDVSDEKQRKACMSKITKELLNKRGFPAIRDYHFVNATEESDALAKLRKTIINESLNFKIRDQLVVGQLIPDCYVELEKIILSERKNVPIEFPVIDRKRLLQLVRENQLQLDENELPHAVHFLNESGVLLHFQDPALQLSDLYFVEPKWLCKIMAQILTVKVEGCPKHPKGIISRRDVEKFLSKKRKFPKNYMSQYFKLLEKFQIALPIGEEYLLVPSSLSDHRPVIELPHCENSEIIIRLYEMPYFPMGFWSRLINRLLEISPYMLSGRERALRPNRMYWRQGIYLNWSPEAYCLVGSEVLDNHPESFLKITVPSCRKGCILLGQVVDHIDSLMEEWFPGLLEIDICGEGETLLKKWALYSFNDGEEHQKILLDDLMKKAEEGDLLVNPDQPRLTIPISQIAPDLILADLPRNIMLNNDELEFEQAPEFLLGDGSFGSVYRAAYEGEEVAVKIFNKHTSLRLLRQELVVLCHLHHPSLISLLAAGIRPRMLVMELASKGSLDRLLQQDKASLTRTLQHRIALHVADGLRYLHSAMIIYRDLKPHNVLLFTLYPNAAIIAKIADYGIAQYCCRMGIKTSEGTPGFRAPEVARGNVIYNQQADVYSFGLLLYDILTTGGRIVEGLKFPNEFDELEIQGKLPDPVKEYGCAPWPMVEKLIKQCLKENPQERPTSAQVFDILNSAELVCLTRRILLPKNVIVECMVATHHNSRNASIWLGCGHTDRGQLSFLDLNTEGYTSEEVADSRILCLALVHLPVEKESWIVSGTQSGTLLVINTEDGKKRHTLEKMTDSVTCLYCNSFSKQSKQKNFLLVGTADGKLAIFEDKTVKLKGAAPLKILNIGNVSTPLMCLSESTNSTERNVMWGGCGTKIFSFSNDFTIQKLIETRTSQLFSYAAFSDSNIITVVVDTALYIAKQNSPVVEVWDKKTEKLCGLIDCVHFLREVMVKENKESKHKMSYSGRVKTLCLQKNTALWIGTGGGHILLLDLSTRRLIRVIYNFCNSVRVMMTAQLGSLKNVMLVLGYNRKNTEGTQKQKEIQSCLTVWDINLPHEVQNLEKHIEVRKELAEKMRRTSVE
Experimental: The inhibition rates of tested compounds on JAK1, JAK2, JAK3, TYK2, CDK7, CDK9, EGFR (T790M) and LRRK2 kinases were measured. The test concentrations of the compounds were 10 nM and 100 nM, and the detection was performed by replicate wells. Alternatively, compounds were 3-fold serial diluted from 10 µM for 10 concentrations in replicate wells.

JAK1 [1] = target: T1, JAK1 (Homo sapiens, UniProt P23458); assay: JAKs cell activity test: detection of pSTAT6 in THP1 cells induced by JAK1_IL-4; assay type: cell-based; settings: pSTAT6, IL-4-induced THP1 cells
Experimental: Detection of pSTAT6 in THP1 cells induced by JAK1_IL-4
THP1 cells were collected by centrifugation, resuspended with 1×HBSS, counted and diluted to a certain cell density. They were inoculated in a 384-well plate and cultured in a saturated humidity incubator with 37 °C and 5% CO2. The compound (DMSO final volume of 0.3%) was added to THP1 cells (10 doses in duplicates) and cultured in a saturated humidity incubator with 37 °C and 5% CO2. hIL-4 was added to stimulate cells and cultured in a saturated humidity incubator with 37 °C and 5% CO2. The lysis solution was added and incubated at room temperature. According to the instructions of AlphaLISA SureFire Ultra p-STAT6 detection kit, the lysis solution was transferred to pSTAT6 detection system, and the ALPHA signal was read by PE Envision microplate reader. The inhibition rate Inh%=((DMSO-sample)/(DMSO-background))×100 was calculated. IC50 was obtained by fitting with GraphPad Prism non-linear regression equation, and y=Bottom+(Top-Bottom)/(1+10^((LogIC50-x)×hillslope)), where x was the concentration of the compound and y was the inhibition rate.

JAK3 = target: T2, JAK3 (Homo sapiens, UniProt P52333); assay: experiment of inhibiting kinase activity (Caliper mobility shift assay), JAK3; assay type: biochemical; settings: for inhibition at 0.01 µM: at 10 nM; for inhibition at 0.01 µM / inhibition at 0.1 µM: read-out: inhibition rate JAK3; for inhibition at 0.1 µM: at 100 nM
T2 sequence (P52333 1-1124): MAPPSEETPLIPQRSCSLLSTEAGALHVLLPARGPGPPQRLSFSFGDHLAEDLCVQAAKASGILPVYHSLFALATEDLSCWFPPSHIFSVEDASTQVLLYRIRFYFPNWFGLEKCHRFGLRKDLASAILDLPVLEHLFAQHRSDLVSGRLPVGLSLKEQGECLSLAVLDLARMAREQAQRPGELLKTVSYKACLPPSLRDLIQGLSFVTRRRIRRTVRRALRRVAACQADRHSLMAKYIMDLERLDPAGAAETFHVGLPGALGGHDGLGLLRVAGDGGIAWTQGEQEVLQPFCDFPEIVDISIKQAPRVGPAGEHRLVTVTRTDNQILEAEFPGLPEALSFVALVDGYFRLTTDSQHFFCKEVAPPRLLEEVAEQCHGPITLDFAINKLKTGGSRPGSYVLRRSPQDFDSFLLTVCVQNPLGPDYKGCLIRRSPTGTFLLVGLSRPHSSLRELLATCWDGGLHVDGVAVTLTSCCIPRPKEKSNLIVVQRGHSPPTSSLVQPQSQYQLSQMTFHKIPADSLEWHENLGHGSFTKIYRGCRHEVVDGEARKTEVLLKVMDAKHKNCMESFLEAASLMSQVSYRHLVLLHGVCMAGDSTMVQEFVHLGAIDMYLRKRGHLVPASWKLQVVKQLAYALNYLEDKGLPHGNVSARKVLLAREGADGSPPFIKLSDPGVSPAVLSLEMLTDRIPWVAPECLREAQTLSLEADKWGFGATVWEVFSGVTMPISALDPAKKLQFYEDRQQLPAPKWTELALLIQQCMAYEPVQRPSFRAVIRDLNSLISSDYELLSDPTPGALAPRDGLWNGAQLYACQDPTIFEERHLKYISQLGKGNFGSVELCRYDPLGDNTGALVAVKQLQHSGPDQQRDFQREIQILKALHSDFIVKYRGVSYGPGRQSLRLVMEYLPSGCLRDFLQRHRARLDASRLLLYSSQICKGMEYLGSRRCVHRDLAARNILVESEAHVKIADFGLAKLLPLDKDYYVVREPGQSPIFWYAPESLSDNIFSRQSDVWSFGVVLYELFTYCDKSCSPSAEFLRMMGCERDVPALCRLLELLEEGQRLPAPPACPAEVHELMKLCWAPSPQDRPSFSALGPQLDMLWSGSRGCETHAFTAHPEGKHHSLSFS
Procedure, shortened: as §1

JAK1 [2] = target: T1, JAK1; assay: experiment of inhibiting kinase activity (Caliper mobility shift assay), JAK1; assay type: biochemical; settings: for inhibition at 0.01 µM: at 10 nM; for inhibition at 0.01 µM / inhibition at 0.1 µM: read-out: inhibition rate JAK1; for inhibition at 0.1 µM: at 100 nM; for IC50: kinase activity assay, Table 3
Procedure, shortened: as §1

CDK7 = CDK7 (Homo sapiens, UniProt P50613); assay: experiment of inhibiting kinase activity (Caliper mobility shift assay), CDK7; assay type: biochemical; settings: read-out: inhibition rate CDK7; for inhibition at 0.1 µM: at 100 nM
Chain of CDK7 (P50613 whole entry, species assumed): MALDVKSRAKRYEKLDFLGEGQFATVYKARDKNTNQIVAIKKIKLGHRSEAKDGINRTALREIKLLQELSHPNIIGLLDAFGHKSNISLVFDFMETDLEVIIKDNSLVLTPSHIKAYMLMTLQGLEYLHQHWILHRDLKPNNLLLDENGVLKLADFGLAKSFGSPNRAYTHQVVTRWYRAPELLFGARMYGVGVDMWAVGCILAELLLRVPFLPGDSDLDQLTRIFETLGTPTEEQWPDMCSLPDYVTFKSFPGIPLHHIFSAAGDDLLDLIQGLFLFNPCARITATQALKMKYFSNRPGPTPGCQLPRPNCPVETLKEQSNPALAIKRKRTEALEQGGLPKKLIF
Chain of CDK7 (P51946 whole entry partner, species assumed): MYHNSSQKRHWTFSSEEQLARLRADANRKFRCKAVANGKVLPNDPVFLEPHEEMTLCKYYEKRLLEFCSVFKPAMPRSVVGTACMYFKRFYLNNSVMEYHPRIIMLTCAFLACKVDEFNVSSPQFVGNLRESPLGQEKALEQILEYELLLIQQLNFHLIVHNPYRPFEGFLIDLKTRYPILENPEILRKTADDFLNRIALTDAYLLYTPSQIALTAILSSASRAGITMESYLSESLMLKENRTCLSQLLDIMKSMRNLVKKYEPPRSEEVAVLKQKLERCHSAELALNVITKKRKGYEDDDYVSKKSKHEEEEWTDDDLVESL
Chain of CDK7 (P51948 whole entry partner, species assumed): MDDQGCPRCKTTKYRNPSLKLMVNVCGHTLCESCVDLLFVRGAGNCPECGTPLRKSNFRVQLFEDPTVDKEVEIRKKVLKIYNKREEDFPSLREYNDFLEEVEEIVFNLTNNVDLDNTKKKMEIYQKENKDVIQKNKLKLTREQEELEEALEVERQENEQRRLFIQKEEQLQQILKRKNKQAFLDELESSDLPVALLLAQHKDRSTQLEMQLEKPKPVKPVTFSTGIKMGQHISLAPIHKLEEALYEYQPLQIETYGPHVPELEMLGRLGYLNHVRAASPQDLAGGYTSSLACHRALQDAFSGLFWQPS
Procedure, shortened: as §1

inhibition at 0.01 µM (JAK2) [%]	inhibition at 0.1 µM (JAK2) [%]	inhibition at 0.01 µM (LRRK2) [%]	inhibition at 0.1 µM (LRRK2) [%]	EC50 (JAK1 [1]) [nM]	inhibition at 0.01 µM (JAK3) [%]	inhibition at 0.1 µM (JAK3) [%]	inhibition at 0.01 µM (JAK1 [2]) [%]	inhibition at 0.1 µM (JAK1 [2]) [%]	inhibition at 0.1 µM (CDK7) [%]	IC50 (JAK2) [nM]	IC50 (LRRK2) [nM]	IC50 (JAK3; kinase activity assay, Table 3) [nM]	IC50 (JAK1 [2]) [nM]	inhibition at 0.01 µM (CDK7; at 10 nM) [%]	Compound
> 80	> 80	> 80	> 80	< 50	> 80	> 80	> 80	> 80	40 to 79						CN1CCOCCOc2cc(Nc3nc(-c4cnn(C(CC#N)C5CCCC5)c4)c4cc[nH]c4n3)ccc2OCC1 (stereo not drawn) [Example 26, 3-cyclopentyl-3-(4-(2-((7-methyl-2,3,6,7,8,9-hexahydro-5H-benzo[b][1,4,7]trioxa[10]azacyclododecan-13-yl)amino)-7H-pyrrolo[2,3-d]pytimidin-4-yl)-1H-pyrazol-1-yl)propionitrile]
40 to 79	> 80		40 to 79	50 to 500	40 to 79	> 80		40 to 79	> 80	< 50	50 to 200	< 50	50 to 200	25 to 39	CN1CCOCCOc2cc(Nc3ncc(F)c(-c4ccc(C(=O)NCC#N)cc4)n3)ccc2OCC1 [Example 16, N-(cyanomethyl)-4-(5-fluoro-2-((7-methyl-2,3,6,7,8,9-hexahydro-5H-benzo[b][1,4,7]trioxa[10]azacyclododecan-13-yl)amino)pyrimidin-4-yl)benzamide]
> 80	> 80	40 to 79	> 80	< 50			> 80	> 80		< 50	< 50		< 50		CCS(=O)(=O)N1CC(CC#N)(n2cc(-c3nc(Nc4ccc5c(c4)OCCN(C)CCO5)nc4[nH]ccc34)cn2)C1 [Example 28, 2-(1-(ethylsulfonyl)-3-(4-(2-((4-methyl-3,4,5,6-tetrahydro-2H-benzo[b][1,4,7]dioxazolin-9-yl)amino)-7H-pyrrolo[2,3-d]pytimidin-4-yl)-1H-pyrazol-1-yl)azetidin-3-yl) acetonitrile]
